From patent US12084420B2, “Indoline compounds for inhibiting KIF18A” (Volastra Therapeutics, Inc., priority 2021, dated 2024)
Like-named read-outs stand apart in the source and are kept apart here.

Tests used:
HCC15 cells = experiment: Cell viability of KIF18a-sensitive cell lines, HCC15 (Cell Titre-Glo, 7 days); assay type: cell-based; conditions: HCC15, 168 h, read-out: HCC-15 IC50
Description: Cell Viability of KIF18a-Sensitive Cell Lines
Cell lines were seeded as follows 24 hours before compound treatment: HCC15 (Korean Cell Line Bank) 600 cell/well, 95 μL of RPMI-1640 media supplemented with 100 units/mL penicillin, 100 units/mL streptomycin and 10% FBS; NIH:OVCAR-3 (ATCC), 1000 cell/well, 95 μL of RPMI-1640 media supplemented with 100 units/mL penicillin, 100 units/mL streptomycin, 0.01 mg/mL bovine insulin, and 20% FBS; JIMT-1 (Addexbio) 1000 cell/well, 95 μL of DMEM media supplemented with 100 units/mL penicillin, 100 units/mL streptomycin, and 10% FBS.
Test compounds were added to cells in a 20× dilution scheme by adding 5 μL of serially diluted compound to the plate, and the treated cells were incubated for an additional 7 days in a 37° C., 5% CO2 incubator. DMSO was used as the negative control (0% effect), and wells omitting cells were used as the positive control (100% effect). The cells were incubated for seven days, and cell viability determined via the Promega Cell Titre-Glo® Assay kit. Luminescence units were converted to ATP concentrations via an ATP standard curve (10 point, 2-fold dilution from 5 uM). % Inhibition was calculated for each well as: ([max−min]−[test−min])/[max−min]. IC50 values were calculated from concentration vs. % Inhibition data via a four-parameter variable slope model.

hKIF18A (1-374) = hKIF18A (1-374) (Homo sapiens (Human), UniProt Q8NI77); experiment: Inhibition of KIF18A microtubule-dependent ATPase activity (ADP-Glo)
hKIF18A (1-374), sequence (Q8NI77 whole entry, looked up): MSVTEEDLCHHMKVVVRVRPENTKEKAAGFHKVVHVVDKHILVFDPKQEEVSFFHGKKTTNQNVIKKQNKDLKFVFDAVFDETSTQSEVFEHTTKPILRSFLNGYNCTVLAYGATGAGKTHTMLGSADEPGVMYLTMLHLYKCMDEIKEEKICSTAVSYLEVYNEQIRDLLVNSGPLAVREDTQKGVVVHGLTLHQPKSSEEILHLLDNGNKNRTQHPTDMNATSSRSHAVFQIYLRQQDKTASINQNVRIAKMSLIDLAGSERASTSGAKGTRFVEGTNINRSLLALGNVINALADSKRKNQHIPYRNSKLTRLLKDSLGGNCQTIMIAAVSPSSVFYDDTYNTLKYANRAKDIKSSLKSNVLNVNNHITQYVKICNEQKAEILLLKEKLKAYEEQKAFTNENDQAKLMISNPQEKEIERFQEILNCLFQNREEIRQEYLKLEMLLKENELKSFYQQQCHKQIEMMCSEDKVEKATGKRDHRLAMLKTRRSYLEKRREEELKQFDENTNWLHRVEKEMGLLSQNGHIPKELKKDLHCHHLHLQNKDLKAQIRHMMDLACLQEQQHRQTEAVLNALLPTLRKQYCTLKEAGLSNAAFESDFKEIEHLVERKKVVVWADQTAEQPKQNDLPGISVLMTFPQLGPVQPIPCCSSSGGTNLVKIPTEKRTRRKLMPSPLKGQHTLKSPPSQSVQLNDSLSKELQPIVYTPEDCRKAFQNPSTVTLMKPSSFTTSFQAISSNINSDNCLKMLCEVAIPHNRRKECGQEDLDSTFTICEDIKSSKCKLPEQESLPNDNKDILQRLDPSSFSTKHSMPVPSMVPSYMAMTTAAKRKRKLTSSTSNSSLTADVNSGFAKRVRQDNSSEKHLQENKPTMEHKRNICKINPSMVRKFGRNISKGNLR
hKIF18A (1-374), sequence (Q2XVP4 whole entry partner, looked up): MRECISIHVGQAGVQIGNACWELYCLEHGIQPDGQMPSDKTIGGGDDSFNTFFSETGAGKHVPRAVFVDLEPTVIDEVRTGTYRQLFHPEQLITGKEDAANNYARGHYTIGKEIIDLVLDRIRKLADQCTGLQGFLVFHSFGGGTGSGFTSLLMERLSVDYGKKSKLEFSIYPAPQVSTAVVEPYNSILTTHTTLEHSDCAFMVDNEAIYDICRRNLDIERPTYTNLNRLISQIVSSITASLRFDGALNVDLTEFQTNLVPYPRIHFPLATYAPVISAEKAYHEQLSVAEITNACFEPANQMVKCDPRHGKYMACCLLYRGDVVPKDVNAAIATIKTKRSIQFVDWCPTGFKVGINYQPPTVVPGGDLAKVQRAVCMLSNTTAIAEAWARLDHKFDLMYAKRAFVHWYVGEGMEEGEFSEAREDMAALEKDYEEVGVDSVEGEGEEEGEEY
hKIF18A (1-374), sequence (P02554 whole entry partner, looked up): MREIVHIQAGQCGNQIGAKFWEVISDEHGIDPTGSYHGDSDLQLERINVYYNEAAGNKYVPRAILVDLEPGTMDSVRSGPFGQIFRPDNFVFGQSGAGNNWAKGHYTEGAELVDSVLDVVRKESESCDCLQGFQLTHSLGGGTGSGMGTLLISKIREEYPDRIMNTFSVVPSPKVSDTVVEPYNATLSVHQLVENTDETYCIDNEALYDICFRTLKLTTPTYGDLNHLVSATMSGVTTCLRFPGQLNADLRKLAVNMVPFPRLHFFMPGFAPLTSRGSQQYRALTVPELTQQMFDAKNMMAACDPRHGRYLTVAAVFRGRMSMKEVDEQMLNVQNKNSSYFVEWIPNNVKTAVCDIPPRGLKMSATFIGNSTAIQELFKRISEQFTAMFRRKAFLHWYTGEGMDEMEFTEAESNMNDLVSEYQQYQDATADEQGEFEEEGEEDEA
Description: Biological Assays Inhibition of KIF18A Microtubule-Dependent ATPase Activity:
Test compounds were plated in a 3× dilution scheme in a 384-well plate. Assay buffer: 80 mM PIPES (pH 6.9), 1 mM MgCl2, 75 mM KCl, 1 mM EGTA, 1 mM DTT, 0.01% BSA, 0.005% Tween-20, 1 μM Taxol in H2O. […] After incubation at room temperature for 30 min, 2.5 μL of microtubule mix was added [0.2 mg/mL pre-formed microtubules, 2.0 mM ATP in assay buffer], the plate was centrifuged for 30 s and then incubated at 28° C. for 60 min. 5 μL of Promega® ADP-Glo Max R1 was added, the plate was centrifuged for 30 s, and the mixture incubated for 4 h at room temperature. 10 μL of Promega® ADP-Glo Max R2 was added, the plate centrifuged for 30 s, and incubated for 60 min at room temperature. Luminescence was measured with an Envision plate reader, and % Inhibition was calculated for each well as: ([max−min]−[test−min])/[max−min]. IC50 values were calculated from concentration vs. % Inhibition data via a four-parameter variable slope model.

[1] = target: KIF18a-Microtubule Complex (Homo sapiens (Human), UniProt Q8NI77); experiment: Binding kinetics to KIF18a-microtubule complex (global progress curve analysis); conditions: for kon (on-rate from binding kinetics assay) / koff (off-rate from binding kinetics assay): global progress curve analysis; for Ki: read-out: KI (determined from binding kinetic assay koff/kon), koff/kon; for koff: read-out: koff (off-rate from binding kinetics assay)
KIF18a-Microtubule Complex, sequence (Q8NI77 whole entry, looked up): as the sequence (Q8NI77 whole entry, looked up) above
KIF18a-Microtubule Complex, sequence (Q2XVP4 whole entry partner, looked up): as the sequence (Q2XVP4 whole entry partner, looked up) above
KIF18a-Microtubule Complex, sequence (P02554 whole entry partner, looked up): as the sequence (P02554 whole entry partner, looked up) above
Description: Binding Kinetics to KIF18a-Microtubule Complex
Compound binding kinetics parameters (kon and koff) were determined by the method of global progress curve analysis (GPCA). […] ADP product levels were determined by the Promega® ADP-Glo assay. The time/dose-dependent progress curves were then globally fit to a Michaelis-Menten kinetics model with 1-step slow binding inhibition to derive both on-rate kon and off-rate koff values (Zhang, R., Wong, K. (2017): “High performance enzyme kinetics of turnover, activation and inhibition for translational drug discovery”, Expert Opinion on Drug Discovery, 2017 January; 12(1):17-37. doi: 10.1080/17460441.2017.1245721).

[2] = HCC-15 cells, 7 days, Cell Titre-Glo
[3] = KIF18A microtubule-dependent ATPase activity, biochemical assay

Compound	IC50 (HCC15 cells; [2]) [nM]	IC50 (hKIF18A (1-374)) [nM]	kon (on-rate from binding kinetics assay) [1] [M⁻¹ s⁻¹]	disc. t1/2 (dissociation half-life ln(2)/koff) [1] [h]	Ki [1] [nM]	koff [1] [s⁻¹]	IC50 (hKIF18A (1-374); [3]) [nM]	koff (off-rate from binding kinetics assay) [1] [s⁻¹]	IC50 (HCC15 cells) [nM]
CC1CCC2(CC1)CN(C(=O)c1cccc(S(=O)(=O)N3CCC(F)(F)CC3)c1)c1ccc(NS(C)(=O)=O)cc12 (centres unmarked) [Compound 24, N-(1′-(3-((4,4-difluoropiperidin-1-yl)sulfonyl)benzoyl)-4-methylspiro[cyclohexane-1,3′-indolin]-5′-yl)methanesulfonamide]	23	10	–	–	–	–	–	–	–
CC(C)(C)NS(=O)(=O)c1cc(C(=O)N2CC3(CCC4(CC4)CC3)c3cc(NS(C)(=O)=O)ccc32)ccc1O [Compound 298, N-(tert-butyl)-2-hydroxy-5-(5″-(methylsulfonamido)dispiro[cyclopropane-1,1′-cyclohexane-4′,3″-indoline]-1″-carbonyl)benzenesulfonamide]	–	–	19700	26	0.38	7.5e-06	8.4	–	–
CC(C)(C)NS(=O)(=O)c1cccc(C(=O)N2CC3(CCC(F)(F)CC3)c3cc(NS(C)(=O)=O)ccc32)c1 [Compound 144, N-(tert-butyl)-3-(4,4-difluoro-5′-(methylsulfonamido)spiro[cyclohexane-1,3′-indoline]-1′-carbonyl)benzenesulfonamide]	–	–	4170	5.2	9.3	3.89e-05	51	–	–
CS(=O)(=O)Nc1ccc2c(c1)C1(CCC3(CC3)CC1)CN2C(=O)c1cccc(S(=O)(=O)NC2CC=CC2)c1 [Compound 172, N-(cyclopent-3-en-1-yl)-3-(5″- (methylsulfonamido)dispiro[cyclopropane-1,1′-cyclohexane-4′,3″-indoline]-1″-carbonyl)benzenesulfonamide]	32	–	–	–	–	–	5.5	–	–
CS(=O)(=O)Nc1ccc2c(c1)C1(CCC3(CC3)CC1)CN2C(=O)c1cccc(S(=O)(=O)N2CCCC2)c1 [Compound 21, N-(1″-(3-(pyrrolidin-1-ylsulfonyl)benzoyl)dispiro[cyclopropane-1,1′-cyclohexane-4′,3″-indolin]-5″- yl)methanesulfonamide]	55	–	–	–	–	–	19	–	–
CS(=O)(=O)Nc1ccc2c(c1)C1(CCC3(CC3)CC1)CN2C(=O)c1cccc([C@@H](O)C2CCCC2)n1 (single isomer, unassigned) [Compound 317a]	–	–	9170	2.1	10	–	11	9.17e-05	–
CC1CCC2(CC1)CN(C(=O)c1cccc(S(=O)(=O)NC(C)(C)C)c1)c1ccc(NS(C)(=O)=O)cc12 (centres unmarked) [Compound 140, N-(tert-butyl)-3-(4-methyl-5′-(methylsulfonamido)spiro[cyclohexane-1,3′-indoline]-1′-carbonyl)benzenesulfonamide]	38	–	–	–	–	–	13	–	–
CC(C)(C)NS(=O)(=O)c1cccc(C(=O)N2CC3(CCCCC3)c3cc(NS(C)(=O)=O)ccc32)c1 [Compound 26, N-(tert-butyl)-3-(5′-(methylsulfonamido)spiro[cyclohexane-1,3′-indoline]-1′-carbonyl)benzenesulfonamide]	69	–	–	–	–	–	67	–	–
CS(=O)(=O)Nc1ccc2c(c1)C1(CCC3(CC3)CC1)CN2C(=O)c1cccc(S(=O)(=O)NC2CCC2)c1 [Compound 168, N-cyclobutyl-3-(5″- (methylsulfonamido)dispiro[cyclopropane-1,1′-cyclohexane-4′,3″-indoline]-1″-carbonyl)benzenesulfonamide]	28	–	–	–	–	–	5.5	–	–
CS(=O)(=O)Nc1ccc2c(c1)C1(CCC3(CC3)CC1)CN2C(=O)c1cccc(S(=O)(=O)N2CC[C@@H](F)C2)c1 [(R)-Compound 239, (R)-N-(1″-(3-((3-fluoropyrrolidin-1-yl)sulfonyl)benzoyl)dispiro[cyclopropane-1,1′-cyclohexane-4′,3″-indolin]-5″- yl)methanesulfonamide]	–	–	16700	8.1	1.4	2.39e-05	9.3	–	–
CS(=O)(=O)Nc1ccc2c(c1)C1(CCCCC1)CN2C(=O)c1cccc([S+]([O-])C2CCCC2)c1 (centres unmarked) [Compound 43, N-(1′-(3-(cyclopentylsulfinyl)benzoyl)spiro [cyclohexane-1,3′-indolin]-5′-yl)methanesulfonamide]	490	–	–	–	–	–	89	–	–
O=C(c1cccc(S(=O)(=O)N2CCC(F)(F)CC2)c1)N1CC2(CCC3(CC3)CC2)c2ccccc21 [Compound 4, (3-((4,4-difluoropiperidin-1-yl)sulfonyl)phenyl)(dispiro[cyclopropane-1,1′-cyclohexane-4′,3″-indolin]-1″- yl)methanone]	2100	–	–	–	–	–	360	–	–
CS(=O)(=O)Nc1ccc2c(c1)C1(CCC3(CC3)CC1)CN2C(=O)c1cccc(S(=O)(=O)C2CCCC2)c1 [Compound 155, N-(1″-(3-(cyclopentylsulfonyl)benzoyl)dispiro [cyclopropane-1,1′-cyclohexane-4′,3″- indolin]-5″-yl)methanesulfonamide]	–	–	30600	6.5	2	3.06e-05	7.4	–	–
CCS(=O)(=O)Nc1ccc2c(c1)[C@]1(CC[C@H](C(F)F)CC1)CN2C(=O)c1cccc(S(=O)(=O)NC(C)(C)C)c1 [Compound 333b]	–	–	3890	63	0.77	–	33	3.06e-06	–
CS(=O)(=O)Nc1ccc2c(c1)C1(CCC3(CC3)CC1)CN2C(=O)c1cccc(S(=O)(=O)N2CC3C(C2)C3(F)F)c1 (centres unmarked) [Compound 237, N-(1″-(3-((6,6-difluoro-3-azabicyclo[3.1.0]hexan-3-yl)sulfonyl)benzoyl)dispiro[cyclopropane-1,1′-cyclohexane-4′,3″-indolin]-5″- yl)methanesulfonamide]	–	–	22800	19	0.44	1e-05	11	–	–
O=C(c1cccc(S(=O)(=O)N2CCC(F)(F)CC2)c1)N1CC2(CCCC2)c2cc(NS(=O)(=O)CCO)ccc21 [Compound 27, N-(1′-(3-((4,4-difluoropiperidin-1-yl)sulfonyl)benzoyl)spiro[cyclopentane-1,3′-indolin]-5′-yl)-2-hydroxyethane-1-sulfonamide]	–	–	–	–	–	–	–	–	140
CS(=O)(=O)Nc1ccc2c(c1)C1(CCC3(CC3)CC1)CN2C(=O)c1cccc([C@H](O)C2CC(F)(F)C2)c1 (single isomer, unassigned) [Compound 351a]	–	–	19400	1.7	5.8	–	8.7	0.000114	–
CS(=O)(=O)Nc1ccc2c(c1)C1(CCCCC1)CN2C(=O)c1cccc(S(=O)(=O)N2CC3(CCC3)C2)c1 [Compound 129, N-(1′-(3-((2-azaspiro[3.3]heptan-2-yl)sulfonyl)benzoyl)spiro[cyclohexane-1,3′-indolin]-5′-yL)methanesulfonamide]	–	–	12200	2.5	6.3	7.78e-05	45	–	–
